US4576961A, “Antibiotic heterocyclic oxygen compounds and use” (priority 1980, dated 1986)

Tests used:
[1] = stability of PR-1381 in solution; type: physicochemical
Experimental: Characteristic signals seen in an ^1 H-NMR-spectrum recorded immediately after dissolution of PR-1381 in deuterochloroform are listed in table E.
When the solution in deuterochloroform is allowed to stand at room temperature, these initial signals gradually disappear while methanol is liberated from the molecule, and finally after 10 hours, a spectrum is observed which is identical with that obtained from PR-1350 complex in deuterochloroform, except for an extra signal at δ=3.48, probably due to methanol liberated during the transformation of PR-1381 to the PR-1350 complex.

microorganisms = experiment: anti-microbial effect; type: cell-based

COC1(O)C(O)OC(CC2(C)C(C)CCC3(C)C(C=O)=CCCC32)C12CO2 (stereo not shown) [PR-1381]
time after which spectrum is identical with that of PR-1350 complex ([1]; deuterochloroform, room temperature): 10 h
decomposition in solution ([1]; in solution): decomposes to the PR-1350 complex with liberation of methanol
antibiotic activity (microorganisms): antibiotically active
anti-microbial effect compared with PR-1350 complex (microorganisms; qualitatively and quantitatively): identical with that of the PR-1350 complex
